Experimental data published in paper PMC12557367, ““Precision on Two Wheels”–Structural Refinement of ^64Cu- and ^68Ga-Labeled Bicyclic Peptides Targeting Nectin‑4 for Improved Tumor Imaging: From Preclinical Development to First-in-Human Application” (Journal of Medicinal Chemistry, 2025).
Numbered stars: 1 amine (or outer) side, 2 acyl side, 3 side chain; on linkers, the order of the positions; unused ones are H or OH. Bridge positions count the residues as written; N and C are the ends. Square brackets hold non-standard residues; d marks the D form. Peptide text beside a SMILES is read from it. * marks the point of attachment. DOTA = O=C(O)CN1CCN(CC(=O)O)CCN(CC(=O)*)CCN(CC(=O)O)CC1; TATA = O=C(CC[*:1])N1CN(C(=O)CC[*:2])CN(C(=O)CC[*:3])C1; X1 = O=C(O)CN1CCN(CC(=O)O)CCN([C@H](CCC(=O)*)C(=O)O)CC1; 1Nal = N[C@@H](Cc1cccc2ccccc12)C(=O)O; 2Nal = N[C@@H](Cc1ccc2ccccc2c1)C(=O)O; Hyp = O=C(O)[C@@H]1C[C@@H](O)CN1; hArg = N=C(N)NCCCC[C@H](N)C(=O)O

Experiments:
[1] = Small animal PET/CT imaging; set-up: species or system mice; settings: mouse, in vivo
Method: (§1) All animal experiments were performed following the protocols evaluated and approved by the Landesdirektion Sachsen, Referat 25 – Veterinärwesen, Lebensmittelüberwachung and Pharmazie (09105 Chemnitz, Germany, ethics approval number: 25-5131/562/52). HT-1376- and 5637-derived tumor xenograft models were established in NMRI nude mice (Rj: NMRI-Foxn1nu/nu, Charles River Laboratories, Sulzfeld, Germany) by subcutaneous injection of 5 × 10^6 cells in 100 μL of PBS containing 50% (v/v) Matrigel (Corning Life Sciences, Amsterdam, The Netherlands).
(§2) When the tumor volume reached 200 mm^3, PET experiments with radiotracers were performed. Radiolabeling of the ligands was performed as described previously with an apparent molar activity of 25 MBq/nmol. The radioligand stock solution (pH 6.5 – 7.5) was diluted in 0.9% NaCl, and 200 μL containing ∼9 MBq ([…]) was injected per mouse intravenously into a lateral tail vein. For blocking of target-specific radioligand binding, 75 nmol of blocking substance (1d) was administered simultaneously with the radioligand. Coincidences were recorded continuously in a 2 h PET-scan starting with the injection. Additionally, a CT scan was performed for anatomical referencing and attenuation correction. PET/CT imaging, reconstruction, and tissue delineation were carried out as described previously.

[2] = system: HT-1376-derived tumor xenograft model; test: Small animal PET/CT imaging; set-up: species or system mice; settings: mouse, in vivo
Method: as §1, §2

[3] = Oxidation stability in H2O2 (radio-HPLC)
Method: To avoid a too rapid degradation of radiolabeled peptides, a low H2O2 concentration of 0.0012% was chosen. […] In this context, there are three further thioether functionalities in each peptide due to the cyclization of the Cys residues with TATA. In Figure , the curves for the time-dependent degradation of the intact radioligands are depicted, from which the respective half-lives were calculated.
The stability toward oxidizing conditions was assessed with H2O2. For this purpose, the radioligands (2 nmol, 48 μL of labeling mixture) were treated with H2O2 (2 μL of 0.03%, final concentration of 0.0012%) at ambient temperature. At distinct time points (3, 5, and 7 h), an aliquot of 2 μL was withdrawn and diluted with 48 μL of a mixture named “Supersol,” which consists of 20% ethanol, 0.5% Triton X-100, 5 mM EDTA, 0.5 mM o-phenanthroline, and 0.1% saponin. […] The resulting solutions were analyzed by radio-HPLC (same system as that used for analyzing the ^64Cu-labelings).

[4] = target: T1, recombinant human nectin-4 (Homo sapiens, UniProt Q96NY8); test: FA-based competitive binding assay with probe 1a
T1 construct: close to the value determined for the complete extracellular domain of nectin-4 (0.94 nM); purchased R&D Systems 2659-N4
T1 sequence (Q96NY8 32-349 limits assumed): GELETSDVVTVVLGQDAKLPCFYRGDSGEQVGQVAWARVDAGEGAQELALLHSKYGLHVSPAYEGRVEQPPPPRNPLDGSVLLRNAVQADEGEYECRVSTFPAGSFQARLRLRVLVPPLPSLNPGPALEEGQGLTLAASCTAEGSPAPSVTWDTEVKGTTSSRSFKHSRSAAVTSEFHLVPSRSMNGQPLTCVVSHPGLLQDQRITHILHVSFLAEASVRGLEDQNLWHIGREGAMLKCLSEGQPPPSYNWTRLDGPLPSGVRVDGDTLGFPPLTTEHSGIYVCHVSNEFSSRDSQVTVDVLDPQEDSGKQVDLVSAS
Method: For the competitive binding assay, a constant concentration of probe 1a (1 nM) and of nectin-4 (20 nM) was used, and the concentration of the competitors was varied over at least 3 orders of magnitude. […] Analysis of the curves by nonlinear regression according to dose–response inhibition with variable slope, as implemented in GraphPad Prism (see Experimental section), provided the IC50 value for displacing the probe from nectin-4.
All measurements were conducted at 37 °C over 1200 s (interval of 37 s) using a Cytation 5 multimode microplate reader (BioTek Instruments, Software Gen 5) and black 96-well microplates (BRANDplates with F-bottom wells). Experiments were conducted at an excitation wavelength of 540 nm and an emission wavelength of 620 nm. The FA (r) was calculated by Gen 5 software from the measured parallel and perpendicular fluorescence intensities (I ∥ and I ⊥, respectively) according to eq using a G factor of 0.87 (preset value). r=I∥−G×I⊥/I∥+2G×I⊥ 1
All further data analyses were conducted with GraphPad Prism (version 10.4.1, GraphPad Software, San Diego, CA, USA). The assay mixture (100 μL) contained an aqueous solution (99 μL) and DMSO (1%, v/v, 1 μL).
For the competitive binding assay, fixed concentrations of probe 1a (1 nM) and recombinant human nectin-4 (20 nM) and 10 concentrations of nonlabeled peptide (e.g., […] prepared as serial 1:1 dilution) were used (two separate experiments, each performed in duplicate). The corresponding stock solutions of 1a (2.5 nM) and nectin-4 (50 nM) were prepared in HEPES buffer, while the stock solutions of the nonlabeled peptides were prepared in 5% DMSO/HEPES buffer. nectin-4 (40 μL) and 1a (40 μL) were added to the wells, and the competition was started by the addition of the nonlabeled peptides (20 μL). The FA values were averaged over the time period of 1200 s, and plots of FA = f([peptide]) were analyzed by nonlinear regression according to the model “[inhibitor] vs. response – Variable slope (four parameters)” as implemented in GraphPad Prism. […] Therefore, the lower FA plateau was constrained to the FA value of probe 1a in the absence of nectin-4 and the competitor, which was recorded in each experiment.

[5] = target: T2, immobilized human nectin-4 (Homo sapiens, UniProt Q96NY8); test: SPR analysis of binding kinetics; settings: ±SEM
T2 construct: close to the value determined for the complete extracellular domain of nectin-4 (0.94 nM); purchased R&D Systems 2659-N4
T2 sequence (Q96NY8 32-349 limits assumed): T1 sequence (Q96NY8 32-349 limits assumed)

| half-life ([1]; Blood half life fast [min]) [min] | half-life ([1]; Blood half life slow [min]) [min] | Percent fast [%] [2] [%] | body retention at 2 h p.i. [2] | time of highest tumor uptake [2] | half-life [3] [min] | Compound | further results |
| --- | --- | --- | --- | --- | --- | --- | --- |
| 1.44 ± 0.19 | 38.8 ± 2.49 | 78.28 ±1.97 | 75% | 8.5 min |  | CSCC[C@@H]1NC(=O)[C@@H]2CSCCC(=O)N3CN(CN(C3)C(=O)CCSC[C@H](NC(=O)CN3CCN(CC(=O)O)CCN(CC(=O)O)CCN(CC(=O)O)CC3)C(=O)N3CCC[C@H]3C(=O)N[C@@H](Cc3ccc4ccccc4c3)C(=O)N[C@H](CC(=O)O)C(=O)N2)C(=O)CCSC[C@@H](C(N)=O)NC(=O)[C@H](Cc2c[nH]c3ccccc23)NC(=O)[C@@H]2C[C@@H](O)CN2C(=O)[C@@H]2CCCN2C(=O)[C@H]([C@@H](C)O)NC(=O)[C@H](CO)NC(=O)[C@H](Cc2c[nH]c3ccccc23)NC(=O)[C@H](CC(=O)O)NC(=O)[C@H](CCCNC(=N)N)NC1=O [[^68Ga]Ga-8c, metal not drawn] ({DOTA}-CP[2Nal][dD]CMRDWSTP[Hyp]WC-NH2; linker 1-5-15 via TATA) |  |
| 1.5 ± 0.15 | 37.1 ± 2.19 | 83.87 ±1.35 | 35% | 0.6 min |  | CSCC[C@@H]1NC(=O)[C@@H]2CSCCC(=O)N3CN(CN(C3)C(=O)CCSC[C@H](NC(=O)CN3CCN(CC(=O)O)CCN(CC(=O)O)CCN(CC(=O)O)CC3)C(=O)N3CCC[C@H]3C(=O)N[C@@H](Cc3ccc4ccccc4c3)C(=O)N[C@H](CC(=O)O)C(=O)N2)C(=O)CCSC[C@@H](C(=O)O)NC(=O)[C@H](Cc2c[nH]c3ccccc23)NC(=O)[C@@H]2C[C@@H](O)CN2C(=O)[C@@H]2CCCN2C(=O)[C@H]([C@@H](C)O)NC(=O)[C@H](CO)NC(=O)[C@H](Cc2c[nH]c3ccccc23)NC(=O)[C@H](CC(=O)O)NC(=O)[C@H](CCCNC(=N)N)NC1=O [[^68Ga]Ga-8d, metal not drawn, reference compound] ({DOTA}-CP[2Nal][dD]CMRDWSTP[Hyp]WC-OH; linker 1-5-15 via TATA) |  |
|  |  |  |  |  |  | CCSC[C@@H]1NC(=O)[C@@H]2CSCCC(=O)N3CN(CN(C3)C(=O)CCSC[C@H](NC(=O)CC[C@H](C(=O)O)N3CCN(CC(=O)O)CCN(CC(=O)O)CC3)C(=O)N3CCC[C@H]3C(=O)N[C@@H](Cc3cccc4ccccc34)C(=O)N[C@H](CC(=O)O)C(=O)N2)C(=O)CCSC[C@@H](C(N)=O)NC(=O)[C@H](Cc2c[nH]c3ccccc23)NC(=O)[C@@H]2C[C@@H](O)CN2C(=O)[C@@H]2CCCN2C(=O)[C@H]([C@@H](C)O)NC(=O)[C@H](CO)NC(=O)[C@H](Cc2c[nH]c3ccccc23)NC(=O)[C@H](CC(=O)O)NC(=O)[C@H](CCCCNC(=N)N)NC1=O [[^64Cu]Cu-7, metal not drawn] (X1-CP[1Nal][dD]CC(Et)[hArg]DWSTP[Hyp]WC-NH2; linker 1-5-15 via TATA) | half-life ([3]; half-life of intact radiolabeled peptide (T1/2), 0.0012% H2O2, 25 °C, one-phase decay): 529 min |
|  |  |  |  |  |  | CCOC[C@@H]1NC(=O)[C@@H]2CSCCC(=O)N3CN(CN(C3)C(=O)CCSC[C@H](NC(=O)CC[C@H](C(=O)O)N3CCN(CC(=O)O)CCN(CC(=O)O)CC3)C(=O)N3CCC[C@H]3C(=O)N[C@@H](Cc3cccc4ccccc34)C(=O)N[C@H](CC(=O)O)C(=O)N2)C(=O)CCSC[C@@H](C(N)=O)NC(=O)[C@H](Cc2c[nH]c3ccccc23)NC(=O)[C@@H]2C[C@@H](O)CN2C(=O)[C@@H]2CCCN2C(=O)[C@H]([C@@H](C)O)NC(=O)[C@H](CO)NC(=O)[C@H](Cc2c[nH]c3ccccc23)NC(=O)[C@H](CC(=O)O)NC(=O)[C@H](CCCCNC(=N)N)NC1=O [compound 6] (X1-CP[1Nal][dD]CS(Et)[hArg]DWSTP[Hyp]WC-NH2; linker 1-5-15 via TATA) | fold lower binding affinity compared to 1e ([4]; FA K d ratio): approximately 10 fold; Hill coefficient n ([4]; competitive binding curve, variable slope): 1.42; kon ([5]; HBS-P+ pH 7.4, 25 °C, read-out: k on (SPR, *10^6 M^–1 s^–1)): 3.86e+06 M⁻¹ s⁻¹; koff ([5]; pH 7.4, HBS-P+ pH 7.4, 25 °C, read-out: k off (SPR, *10^–3 s^–1)): 0.0247 s⁻¹ |
| 1.27 ± 0.13 | 35.9 ± 2.08 | 84.87 ±1.35 | 40–42% | ≈ 6 min | 242 | CSCC[C@@H]1NC(=O)[C@@H]2CSCCC(=O)N3CN(CN(C3)C(=O)CCSC[C@H](NC(=O)CC[C@H](C(=O)O)N3CCN(CC(=O)O)CCN(CC(=O)O)CC3)C(=O)N3CCC[C@H]3C(=O)N[C@@H](Cc3ccc4ccccc4c3)C(=O)N[C@H](CC(=O)O)C(=O)N2)C(=O)CCSC[C@@H](C(N)=O)NC(=O)[C@H](Cc2c[nH]c3ccccc23)NC(=O)[C@@H]2C[C@@H](O)CN2C(=O)[C@@H]2CCCN2C(=O)[C@H]([C@@H](C)O)NC(=O)[C@H](CO)NC(=O)[C@H](Cc2c[nH]c3ccccc23)NC(=O)[C@H](CC(=O)O)NC(=O)[C@H](CCCNC(=N)N)NC1=O [[^64Cu]Cu-8a, metal not drawn] (X1-CP[2Nal][dD]CMRDWSTP[Hyp]WC-NH2; linker 1-5-15 via TATA) |  |
|  |  |  |  |  | 208 | CSCC[C@@H]1NC(=O)[C@@H]2CSCCC(=O)N3CN(CN(C3)C(=O)CCSC[C@H](NC(=O)CC[C@H](C(=O)O)N3CCN(CC(=O)O)CCN(CC(=O)O)CC3)C(=O)N3CCC[C@H]3C(=O)N[C@@H](Cc3cccc4ccccc34)C(=O)N[C@H](CC(=O)O)C(=O)N2)C(=O)CCSC[C@@H](C(N)=O)NC(=O)[C@H](Cc2c[nH]c3ccccc23)NC(=O)[C@@H]2C[C@@H](O)CN2C(=O)[C@@H]2CCCN2C(=O)[C@H]([C@@H](C)O)NC(=O)[C@H](CO)NC(=O)[C@H](Cc2c[nH]c3ccccc23)NC(=O)[C@H](CC(=O)O)NC(=O)[C@H](CCCNC(=N)N)NC1=O [[^64Cu]Cu-10, metal not drawn] (X1-CP[1Nal][dD]CMRDWSTP[Hyp]WC-NH2; linker 1-5-15 via TATA) |  |
